# Test results reported in US11958861B2, “Spirocyclic lactams as JAK2 V617F inhibitors” (Incyte Corporation, priority 2021, dated 2024).
# Structures can show the parent of a compound that is named as a salt.
# Experiments:
# [1] = target: T1, catalytic domain (JH1, amino acids 826-1132) of human JAK2 (Homo sapiens, UniProt O60674); experiment: JAK2 LanthaScreen JH1 Binding Assay; conditions: 2 hours at 25° C.
# T1 construct: catalytic domain (JH1, amino acids 826-1132) of human JAK2; purchased Carna Biosciences 08-445-20N; host or cells: baculovirus expression system
# T1 sequence (O60674 826-1132): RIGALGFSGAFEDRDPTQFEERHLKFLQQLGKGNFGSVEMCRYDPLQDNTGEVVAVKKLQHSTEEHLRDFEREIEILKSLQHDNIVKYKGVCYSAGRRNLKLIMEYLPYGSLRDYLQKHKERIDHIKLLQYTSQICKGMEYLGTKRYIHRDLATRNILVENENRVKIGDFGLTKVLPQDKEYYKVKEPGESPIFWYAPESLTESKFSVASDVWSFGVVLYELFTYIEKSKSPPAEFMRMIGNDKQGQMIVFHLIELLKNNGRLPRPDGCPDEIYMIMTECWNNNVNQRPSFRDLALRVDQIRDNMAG
# Method in brief: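 Reaction held 1.5 nM biotinylated FLAG-JAK2 JH1, 50 nM tracer and 0.5 nM streptavidin-Tb in pH 7.5 Tris buffer; 2 mM ATP defined nonspecific binding.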
# [2] = target: T2, catalytic domain (JH1, amino acids 808-1132) of human JAK2 (Homo sapiens, UniProt O60674); experiment: JAK2 HTRF Enzyme Activity Assay; format: biochemical; conditions: ATP 30 μM, read-out: ENZ 30UMATP
# T2 construct: catalytic domain (JH1, amino acids 808-1132) of human JAK2; His (N); purchased BPS Bioscience 40450; host or cells: baculovirus expression system
# T2 sequence (O60674 808-1132): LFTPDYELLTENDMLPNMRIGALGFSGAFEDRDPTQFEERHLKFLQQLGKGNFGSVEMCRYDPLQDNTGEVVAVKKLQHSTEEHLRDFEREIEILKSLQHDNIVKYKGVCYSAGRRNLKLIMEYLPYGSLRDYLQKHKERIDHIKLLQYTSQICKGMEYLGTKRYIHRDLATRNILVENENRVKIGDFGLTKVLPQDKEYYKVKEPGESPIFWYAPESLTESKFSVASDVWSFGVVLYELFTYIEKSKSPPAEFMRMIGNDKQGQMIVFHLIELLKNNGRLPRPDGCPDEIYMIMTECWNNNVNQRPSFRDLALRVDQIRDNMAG
# Method in brief: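 IC50 values come from a four-parameter fit of HTRF signal (Eu-PY20 antibody/streptavidin-APC, EDTA-quenched). Reaction: 0.015 nM N-His JAK2 catalytic domain (baculovirus), 500 nM biotin-peptide, 30 μM or 1 mM ATP, Tris pH 7.5 buffer, 60 min, 25° C.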
# [3] = target: T3, pseudo-kinase domain (JH2, amino-acids 536-812) of human Wild Type JAK2 (Homo sapiens, UniProt O60674, F794H/W659A/W777A); experiment: JAK2 LanthaScreen JH2-WT Binding Assay; conditions: 1 hour at 25° C.
# T3 construct: pseudo-kinase domain (JH2, amino-acids 536-812 with 3 surface mutations W659A, W777A, F794H); purchased BPS Bioscience 79463; host or cells: baculovirus expression system
# T3 sequence (O60674 536-812 W659A/W777A/F794H): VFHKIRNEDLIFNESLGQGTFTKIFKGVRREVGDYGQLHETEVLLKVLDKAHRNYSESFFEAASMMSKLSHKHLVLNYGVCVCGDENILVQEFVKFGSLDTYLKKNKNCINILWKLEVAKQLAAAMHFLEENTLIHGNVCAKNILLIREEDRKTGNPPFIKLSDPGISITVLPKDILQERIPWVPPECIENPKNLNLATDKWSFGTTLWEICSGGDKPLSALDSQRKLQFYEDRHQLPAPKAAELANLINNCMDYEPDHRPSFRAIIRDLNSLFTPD
# Method in brief: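 TR-FRET tracer displacement: 0.145 nM biotinylated JH2 protein, 50 nM fluorescent tracer, 0.25 nM streptavidin-Tb, compound dilution series; 50 mM Tris pH 7.5, 10 mM MgCl2, 5 mM DTT; 1 h, 25° C. Non-specific binding with 2 mM ATP. IC50 by 4-parameter fit.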
# [4] = target: T4, pseudo-kinase domain (JH2, amino-acids 536-812) of human V617F mutant JAK2 (Homo sapiens, UniProt O60674, F794H/V617F/W659A/W777A); experiment: JAK2 LanthaScreen JH2-V617F Binding Assay; conditions: 1 hour at 25° C.
# T4 construct: pseudo-kinase domain (JH2, amino-acids 536-812 with 3 surface mutations W659A, W777A, F794H); purchased BPS Bioscience 79498; host or cells: baculovirus expression system
# T4 sequence (O60674 536-812 V617F/W659A/W777A/F794H): as the sequence (O60674 536-812 W659A/W777A/F794H) above, with V82F counted along it
# Method in brief: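 Binding was measured as TR-FRET displacement of 50 nM tracer from 0.26 nM biotinylated His-Avi protein, incubated one hour at 25° C; IC50 from a four-parameter fit.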
Structure (SMILES),IC50 [1] [nM],IC50 [2] [nM],IC50 [3] [nM],IC50 [4] [nM]
"[2H]C([2H])([2H])n1cc(-c2[nH]c3ncc4c(c3c2-c2ccc3c(cnn3C)c2)C2(CCN(CCC#N)CC2)C(=O)N4C)cn1 [Example 7, 3-(6-Methyl-1-(1-methyl-1H-indazol-5-yl)-2-(1-(methyl-d3)-1H-pyrazol-4-yl)-7-oxo-6,7-dihydro-3H-spiro[dipyrrolo[2,3-b:3′,2′-d]pyridine-8,4′-piperidin]-1′-yl)propanenitrile]",1250 to 2500,1250 to 2500,≤ 100,≤ 100
"CN1C(=O)C2(CCCC2)c2c1cnc1[nH]c(-c3cnn(Cc4ccncc4)c3)c(-c3ccc4c(cnn4C)c3)c21 [Example 8, 6′-Methyl-1′-(1-methyl-1H-indazol-5-yl)-2′-(1-(pyridin-4-ylmethyl)-1H-pyrazol-4-yl)-3′,6′-dihydro-7′H-spiro[cyclopentane-1,8′-dipyrrolo[2,3-b:3′,2′-d]pyridin]-7′-one trifluoroacetate salt]",1250 to 2500,> 2500,≤ 100,≤ 100
"CN1C(=O)C2(CCCC2)c2c1cnc1[nH]c(C3CC3)c(-c3ccc4c(cnn4C)c3)c21 [Example 9, 2′-Cyclopropyl-6′-methyl-1′-(1-methyl-1H-indazol-5-yl)-3′,6′-dihydro-7′H-spiro[cyclopentane-1,8′-dipyrrolo[2,3-b:3′,2′-d]pyridin]-7′-one, trifluoroacetate salt]",> 2500,> 2500,100 to 500,100 to 500
"CN1C(=O)C2(CCC2)c2c1cnc1[nH]c(-c3ccc(CN4CCC(S(C)(=O)=O)CC4)cc3)c(-c3ccccc3)c21 [Example 10, 6′-Methyl-2′-(4-((4-(methylsulfonyl)piperidin-1-yl)methyl)phenyl)-1′-phenyl-3′,6′-dihydro-7′H-spiro[cyclobutane-1,8′-dipyrrolo[2,3-b:3′,2′-d]pyridin]-7′-one trifluoroacetate salt]",> 2500,> 2500,≤ 100,≤ 100
"CN1C(=O)C2(CCCCC2)c2c1cnc1[nH]c(-c3ccc(CN4CCC(S(C)(=O)=O)CC4)cc3)c(-c3ccccc3)c21 [Example 11, 6′-Methyl-2′-((4(4-(methylsulfonyl)piperidin-1-yl)methyl)phenyl)-1′-phenyl-3′,6′-dihydro-7′H-spiro[cyclohexane-1,8′-dipyrrolo[2,3-b:3′,2′-d]pyridin]-7′-one trifluoroacetate salt]",> 2500,> 2500,100 to 500,100 to 500
"CC(=O)N1C2CCC1CC1(C2)C(=O)N(C)c2cnc3[nH]c(-c4ccc(CN5CCC(S(C)(=O)=O)CC5)cc4)c(-c4ccccc4)c3c21 (stereo not shown) [Example 13, 8-Acetyl-6′-methyl-2′-((4(4-(methylsulfonyl)piperidin-1-yl)methyl)phenyl)-1′-phenyl-3′,6′-dihydro-7′H-8-azaspiro[bicyclo[3.2.1]octane-3,8′-dipyrrolo[2,3-b:3′,2′-d]pyridin]-7′-one trifluoroacetate salt]",1250 to 2500,1250 to 2500,≤ 100,100 to 500
"CN1C(=O)C2(CCN(c3ccncn3)CC2)c2c1cnc1[nH]c(-c3ccc(CN4CCC(S(C)(=O)=O)CC4)cc3)c(-c3ccccc3)c21 [Example 15, 6-Methyl-2-(4-((4-(methylsulfonyl)piperidin-1-yl)methyl)phenyl)-1-phenyl-1′-(pyrimidin-4-yl)-3,6-dihydro-7H-spiro[dipyrrolo[2,3-b:3′,2′-d]pyridine-8,4′-piperidin]-7-one, trifluoroacetate salt]",> 2500,> 2500,≤ 100,≤ 100
"CN1C(=O)C2(CC3CCC(C2)N3c2ccncn2)c2c1cnc1[nH]c(-c3ccc(CN4CCC(S(C)(=O)=O)CC4)cc3)c(-c3ccccc3)c21 [Example 16, (1R,3r,5S)-6′-Methyl-2′-((4(4-(methylsulfonyl)piperidin-1-yl)methyl)phenyl)-1′-phenyl-8-(pyrimidin-4-yl)-3′,6′-dihydro-7′H-8-azaspiro[bicyclo[3.2.1]octane-3,8′-dipyrrolo[2,3-b:3′,2′-d]pyridin]-7′-one, trifluoroacetate salt]",> 2500,> 2500,≤ 100,≤ 100
"Cc1ncc(-c2c(-c3cnn(C)c3)[nH]c3ncc4c(c23)C2(CCN(c3ccncn3)CC2)C(=O)N4C)s1 [Example 17, 6-Methyl-2-(1-methyl-1H-pyrazol-4-yl)-1-(2-methylthiazol-5-yl)-1′-(pyrimidin-4-yl)-3,6-dihydro-7H-spiro[dipyrrolo[2,3-b:3′,2′-d]pyridine-8,4′-piperidin]-7-one, trifluoroacetate salt]",> 2500,> 2500,100 to 500,100 to 500
"C=Cc1c(-c2cnn(C)c2)[nH]c2ncc3c(c12)C1(CCN(c2ccncn2)CC1)C(=O)N3C [Example 18, 6-Methyl-2-(1-methyl-1H-pyrazol-4-yl)-1′-(pyrimidin-4-yl)-1-vinyl-3,6-dihydro-7H-spiro[dipyrrolo[2,3-b:3′,2′-d]pyridine-8,4′-piperidin]-7-one, trifluoroacetate salt]",> 2500,> 2500,500 to 1250,1250 to 2500
"CCc1c(-c2cnn(C)c2)[nH]c2ncc3c(c12)C1(CCN(c2ccncn2)CC1)C(=O)N3C [Example 19, 1-Ethyl-6-methyl-2-(1-methyl-1H-pyrazol-4-yl)-1′-(pyrimidin-4-yl)-3,6-dihydro-7H-spiro[dipyrrolo[2,3-b:3′,2′-d]pyridine-8,4′-piperidin]-7-one, trifluoroacetate salt]",1250 to 2500,1250 to 2500,100 to 500,100 to 500
"CN1C(=O)C2(CCN(c3ccncn3)CC2)c2c1cnc1[nH]c(-c3cnn(C)c3)c(C3=CCOCC3)c21 [Example 20, 1-(3,6-Dihydro-2H-pyran-4-yl)-6-methyl-2-(1-methyl-1H-pyrazol-4-yl)-(1-(pyrimidin-4-yl)-3,6-dihydro-7H-spiro[dipyrrolo[2,3-b:3′,2′-d]pyridine-8,4′-piperidin]-7-one, trifluoroacetate salt]",> 2500,> 2500,100 to 500,100 to 500
"COc1cccc(NC(=O)N2CCC3(CC2)C(=O)N(C)c2cnc4[nH]c(-c5ccc(CN6CCC(S(C)(=O)=O)CC6)cc5)c(-c5ccccc5)c4c23)c1 [Example 21, N-(3-Methoxyphenyl)-6-methyl-2-(4-((4-(methylsulfonyl)piperidin-1-yl)methyl)phenyl)-7-oxo-1-phenyl-6,7-dihydro-3H-spiro[dipyrrolo[2,3-b:3′,2′-d]pyridine-8,4′-piperidine]-1′-carboxamide, trifluoroacetate salt]",> 2500,> 2500,≤ 100,≤ 100
"CN1C(=O)C2(CCCC2)c2c1cnc1[nH]c(-c3cnn(C)c3)c(-c3ccc(CN4CCN(S(C)(=O)=O)CC4)cc3)c21 [Example 22, 6′-Methyl-2′-(1-methyl-1H-pyrazol-4-yl)-1′-(4-((4-(methylsulfonyl)piperazin-1-yl)methyl)phenyl)-3′,6′-dihydro-7′H-spiro[cyclopentane-1,8′-dipyrrolo[2,3-b:3′,2′-d]pyridin]-7′-one, trifluoroacetate salt]",> 2500,> 2500,≤ 100,100 to 500
"CCS(=O)(=O)N1CC(CC#N)(N2CCC3(CC2)C(=O)N(C)c2cnc4[nH]c(-c5cnn(C)c5)c(-c5ccccc5)c4c23)C1 [Example 23, 2-(1-(Ethylsulfonyl)-3-(6-methyl-2-(1-methyl-1H-pyrazol-4-yl)-7-oxo-1-phenyl-6,7-dihydro-3H-spiro[dipyrrolo[2,3-b:3′,2′-d]pyridine-8,4′-piperidin]-1′-yl)azetidin-3-yl)acetonitrile, trifluoroacetate salt]",500 to 1250,100 to 500,≤ 100,≤ 100
"CC(=O)N1CC(CC#N)(N2CCC3(CC2)C(=O)N(C)c2cnc4[nH]c(-c5cnn(C)c5)c(-c5ccccc5)c4c23)C1 [Example 24, 2-(1-Acetyl-3-(6-methyl-2-(1-methyl-1H-pyrazol-4-yl)-7-oxo-1-phenyl-6,7-dihydro-3H-spiro[dipyrrolo[2,3-b:3′,2′-d]pyridine-8,4′-piperidin]-1′-yl)azetidin-3-yl)acctonitrile, trifluoroacetate salt]",500 to 1250,100 to 500,≤ 100,≤ 100
